{"source": "patent US12564610B2", "about": "“Human periventricular endothelial cell therapy for neuropsychiatric disorders” (The McLean Hospital Corporation, priority 2019, dated 2026)", "format_in_all_cases": "cell-based", "key": {"[1]": {"tested_on": "human periventricular endothelial cells", "assay": "Long-distance migration assay of periventricular endothelial cells with chemicals", "conditions": "compared to control (no chemicals added), five days", "from_the_text": "Long-distance migration assay: In preparation for migration assays, two-well silicone culture inserts (from ibidi GmbH, Cat #80209) were converted into one-well inserts by cutting with a sharp, sterile blade. Individual one-well inserts were placed in the middle of a 35 mm dish coated with Poly-Ornithine and Laminin. The boundary of the insert was marked on the back of each dish with a thin marker. For this assay, periventricular endothelial cells, control endothelial cells and endothelial cells derived without GABA and WNT7A were used at passage number P2 or P3, while GABA interneurons cultured for six weeks were used. 10^4 periventricular endothelial cells or endothelial cells derived without GABA and WNT7A were seeded in each insert in periventricular endothelial cell medium without GABA. Same number of GABAergic interneurons or control endothelial cells were seeded per insert in their respective manufacturer's recommended medium. The insert was removed after 48 hours and cells cultured for five days. After 5 days, cells were fixed and fluorescently labeled with an anti-human CD31 antibody (for endothelial cells) or an anti-human β-Tubulin antibody (for neurons) and DAPI. The distance between each cell body and the edge of the insert-boundary was measured using ImageJ.\nMigration assays with chemicals: To assess the roles of GABA or SDF-1/CXCL12 signaling on migration of human periventricular endothelial cells, 10^4 cells were seeded in one well insert and allowed to migrate in the presence of respective agonist or antagonist in periventricular endothelial cell medium (without GABA). After five days, cells were fixed, stained with anti-human CD31 antibody (Millipore), imaged and the distance migrated was calculated using ImageJ. To examine the effect of endothelial GABA or endothelial SDF-1/CXCL12 signaling on interneuron migration, human periventricular endothelial cells were seeded in 35 mm dish (10^5 cells/cm^2) and incubated with respective chemical for a period of 48 hours. […]"}, "[2]": {"tested_on": "GABAergic interneurons on pre-incubated human periventricular endothelial cells", "assay": "Interneuron migration over chemical-pre-treated periventricular endothelial cells", "conditions": "interneurons migrate 48 hours, vs control", "protocol": "Migration assays with chemicals: To assess the roles of GABA or SDF-1/CXCL12 signaling on migration of human periventricular endothelial cells, 10^4 cells were seeded in one well insert and allowed to migrate in the presence of respective agonist or antagonist in periventricular endothelial cell medium (without GABA). After five days, cells were fixed, stained with anti-human CD31 antibody (Millipore), imaged and the distance migrated was calculated using ImageJ. To examine the effect of endothelial GABA or endothelial SDF-1/CXCL12 signaling on interneuron migration, human periventricular endothelial cells were seeded in 35 mm dish (10^5 cells/cm^2) and incubated with respective chemical for a period of 48 hours. 3×10^4 GABAergic interneurons were seeded on top of the periventricular endothelial cells using a one-well insert, and allowed to migrate over the pre-incubated periventricular endothelial cells for 2 days. Migration of neurons was assayed by staining with anti-human β-Tubulin antibody (Biolegend) and imaged. The concentration of chemicals used in the assays are as follows: muscimol (Sigma) 100 uM, BMI (Sigma) 100 uM, AMD3100 (Sigma) 50 μM, recombinant human SDF-1α (Peprotech) 40 nM. The chemicals were kept at −20° as concentrated stock solutions and diluted on the day of the experiment."}, "[3]": {"tested_on": "human periventricular endothelial cells", "assay": "Junction protein immunostaining in differentiating periventricular endothelial cells (effect of GABA / WNT7A)", "protocol": "Endothelial cell differentiation and culture: H9 cells (WiCell, Madison, WI) were maintained in E8 media (Thermo Fisher Scientific) on Matrigel (BD Biosciences)-coated plates and passaged once a week with 0.5 mM EDTA (Thermo Fisher Scientific) in PBS. On day 0 of differentiation, H9 cells were dissociated with Accutase (Sigma), and plated at a density of 10^5 cells/cm^2 on Matrigel-coated plates. […] Rock inhibitor, Y-27632 (1004, Selleck Chemicals) was added for first 24 hours to improve cell survival. On day 2, cells were switched to vascular inducing medium composed of E6 medium (Thermo Fisher Scientific) containing BMP4 (50 ng/ml), SB431542 (5 μM, Cayman Chemicals), GABA (5 μM), WNT7A (500 ng/ml), FGF2 (100 ng/ml, Peprotech) and VEGF-A (50 ng/ml, Peprotech). On day 5, cells were split at 1:6 ratio using Accutase and plated on Matrigel-coated plates in periventricular endothelial cell (PVEC) medium consisting of E6 with VEGF-A (50 ng/ml), FGF2 (100 ng/ml) and GABA (5 μM). On day 7, periventricular endothelial cells were isolated from the mixed population by fluorescence-activated cell sorting (FACS) and seeded on Matrigel-coated plates in periventricular endothelial cells medium at a density of 6×10^5 cells/cm^2. For routine culturing, periventricular endothelial cells were dissociated using Accutase, and seeded on Matrigel-coated plates at a density of 6×10^5 cells/cm^2 (high density seeding) or 1.2×10^5 cells/cm^2 (low density seeding), with medium change every alternate day. Periventricular endothelial cells were cryopreserved after at least one passaging in freezing medium composed of 90% periventricular endothelial cells medium and 10% DMSO. As a source of neurons, we used human iPSC-derived GABAergic neurons from Cellular Dynamics (Madison, WI, Cat #R1013). As control for microarray analysis and for cell migration assays, we used human-iPSC derived endothelial cells from Cellular Dynamics (Madison WI, Cat #R1022), whose gene expression profile is similar to human aortic endothelial cells (HAECs; https://fujifilmedi.com/assets/CDI130925MIPTEC04.pdf). […]"}, "[4]": {"conditions": "endothelial cells treated 48 hours with 100 μM"}}, "data": [{"compound": "c1cc(CN2CCCNCCNCCCNCC2)ccc1CN1CCCNCCNCCCNCC1", "note": "[AMD3100]", "values": [{"measurement": "periventricular endothelial cell migration", "setting": "[1]; 50 μM", "value": "no significant effect on endothelial cell migration"}, {"measurement": "interneuron migration on pre-treated periventricular endothelial cells", "setting": "[2]; endothelial cells treated 48 hours with 50 μM", "value": "No discernible effect on interneuron migration"}]}, {"compound": "C[N+]1(C)CCc2cc3c(cc2[C@H]1[C@@H]1OC(=O)c2c1ccc1c2OCO1)OCO3.[I-]", "note": "[BMI, bicuculline methiodide]", "values": [{"measurement": "periventricular endothelial cell migration", "setting": "[1]; 100 μM", "value": "significant decrease in cell migration"}, {"measurement": "interneuron migration on pre-treated periventricular endothelial cells", "setting": "[2]; [4]", "value": "decreased migration"}]}, {"compound": "NCCCC(=O)O", "note": "[GABA, gamma amino-butyric acid]", "values": [{"measurement": "tight junction formation (Claudin5 and ZO-1 staining)", "setting": "[3]; 5 uM GABA, in comparison to 50 μM or 100 μM", "value": "increases tight junction formation"}, {"measurement": "localization of tight junction proteins Claudin 5 and ZO-1", "setting": "[3]; 50 uM or 100 μM GABA", "value": "disrupted the localization of tight junction proteins Claudin 5 and ZO-1"}, {"measurement": "expression of VE-Cadherin", "setting": "[3]; increase in GABA levels (5, 50, 100 μM)", "value": "not affected by increase in GABA levels"}]}, {"compound": "NCc1cc(=O)[nH]o1", "note": "[muscimol]", "values": [{"measurement": "periventricular endothelial cell migration", "setting": "[1]; 100 μM", "value": "significant increase in the number of migrating cells"}, {"measurement": "interneuron migration on pre-treated periventricular endothelial cells", "setting": "[2]; [4]", "value": "significantly higher migratory ability"}]}]}
